# Measurements as given in patent US11976064B2, “Toll-like receptor agonists” (Pfizer Inc., priority 2019, dated 2024).
# System: peripheral blood mononuclear cells (PBMCs)
# Assay: IFNα release assay from peripheral blood mononuclear cells (HTRF)
# Assay type: cell-based
# Settings: Homo sapiens, PBMC, 24 h, freshly isolated human PBMC, IFNα by HTRF, geometric mean when tested more than once
# Description: The Examples described were tested for biological activity in functional cellular assays using HEK293 cells stably overexpressing human TLR7 or TLR8. The assays tested for the ability of each Example to stimulate secretion of interferon alpha (IFNα) in human primary blood mono nuclear cells (PBMC).
# To determine the ability of each Example to induce the release of interferon alpha (IFNα) from freshly isolated peripheral blood mononuclear cells (PBMCs), a Homogeneous Time-Resolved Fluorescence (HTRF) assay was utilized. Human whole blood was collected from healthy donors via vein puncture in accordance with Pfizer protocols (Protocol No. GOHW RDP-01), approved by the Shulman Institutional Review Board. 50 ml of human venous blood sample from individual donors was heparinized by addition to a conical tube containing 714 units of Heparin Sodium Injection MDV (Fresenius Kabi, cat #70041) followed by gentle inversion of the tube several times. Blood was then transferred to a flask, the conical tube was rinsed with 40 ml of PBS containing 2 mM EDTA (PBS-EDTA), and the rinse was added to the blood flask with gently mixing. 30 ml of the diluted blood was added to 3 separate histopaque tubes (Sigma, cat #A0561), applying directly to the frit. Histopaque tubes were then spun for 15 min at 1000×g in a tabletop centrifuge. Following density separation, excess upper phase of plasma was aspirated to within ˜5 ml above the interphase and remaining plasma along with the cloudy interphase containing PBMCs were gently decanted into a new conical tube. 15 ml of PBS-EDTA was added to the histopaque tube and swirled gently to remove remaining PBMCs that adhered to the tube wall and this wash was added to the existing PBMCs in the tube. The volume of the tube was brought to 40 ml with PBS-EDTA and tubes were spun at 250×g for 12 minutes at room temperature. After aspiration of the supernatant, the pellet was gently resuspended with 10 ml of PBS-EDTA and centrifuged again at 250×g for 12 minutes. The resulting supernatant was decanted, and the pellet was resuspended in 20 ml of ACK lysing buffer (ThermoFisher, cat #A10492-01) followed by incubation at room temperature for 5 minutes. The volume of each tube was brought to 50 ml with the addition of PBS-EDTA and tubes were spun at 177×g for 12 minutes at room temperature. The PBMC pellet was again resuspended in 10 ml of PBS without EDTA and tubes were spun for a final time at 177×g for 10 minutes. The supernatant was decanted and PBMCs were resuspended in Assay Media (RPMI base media with 10% FBS heat inactivated, 2 mM Glutamax and Penicillin/Streptomycin).
# Each Example was prepared for the assay using 11-point half log serial dilutions from a 2.5 mM DMSO stock solution and 400 nl was spotted into 384 well Viewplate (Perkin Elmer, cat #6007480). Positive and negative controls (previously described) were also spotted within the assay plate and were used to determine percent effect during the analysis process. PBMCs were counted and plated at a density of 100,000 cells/[…]/well; plates were covered with a prewet microclime lid to prevent evaporation and incubated for 24 hrs at 37° C. in a 5% CO2 atmosphere. At the end of the incubation, the microclime lid was removed and the plates were spun at 1000 rpm for 5 minutes. 16 μl of conditioned media from the cell plate was transferred into a separate 384 well low-volume plate (Greiner One, 784080). IFNα levels were quantitated using an HTRF® kit (Cisbio, cat #62HIFNAPEG) according to the manufacturer's instructions. The kit supplies two different specific antibodies, one labelled with D2 (acceptor) and the other labelled with cryptate (donor), and detection buffer. The antibody stocks were diluted […] in detection buffer. For one 384 well plate, 62.5 μl of D2 antibody stock and 62.5 μl of cryptate antibody stock was added to 2.375 ml of detection buffer and mixed well. […]
row,SMILES,EC50 [nM]
1,"CCOCc1nc2c(N)nc(C)c(C)c2n1CC(CO)CO [Example 1, 2-((4-amino-2-(ethoxymethyl)-6,7-dimethyl-1H-imidazo[4,5-c]pyridin-1-yl)methyl)propane-1,3-diol]",99
2,"CCOCc1nc2c(N)nc(C)c(C)c2n1CC(C)(CO)CO [Example 2, 2-((4-amino-2-(ethoxymethyl)-6,7-dimethyl-1H-imidazo[4,5-c]pyridin-1-yl)methyl)-2-methylpropane-1,3-diol]",19
3,"CCOCc1nc2c(N)nc3ccccc3c2n1CC(C)(CO)CO [Example 3, 2-((4-amino-2-(ethoxymethyl)-1H-imidazo[4,5-c]quinolin-1-yl)methyl)-2-methylpropane-1,3-diol]",7
4,"Cc1nc(N)c2nc(CC(F)(F)F)n(CC(C)(CO)CO)c2c1C [Example 8, 2-((4-amino-6,7-dimethyl-2-(2,2,2-trifluoroethyl)-1H-imidazo[4,5-c]pyridin-1-yl)methyl)-2-methylpropane-1,3-diol]",48
5,"CCOCc1nc2c(N)nc(C)c(C)c2n1CC(CC)(CO)CO [Example 9, 2-((4-amino-2-(ethoxymethyl)-6,7-dimethyl-1H-imidazo[4,5-c]pyridin-1-yl)methyl)-2-ethylpropane-1,3-diol]",2
6,"CCCCc1nc2c(N)nc3ccccc3c2n1CC(C)(CO)CO [Example 10, 2-((4-amino-2-butyl-1H-imidazo[4,5-c]quinolin-1-yl)methyl)-2-methylpropane-1,3-diol]",1
7,"CCCCc1nc2c(N)nc3c(c2n1CC(C)(CO)CO)CCCC3 [Example 13, 2-((4-amino-2-butyl-6,7,8,9-tetrahydro-1H-imidazo[4,5-c]quinolin-1-yl)methyl)-2-methylpropane-1,3-diol]",0.4
8,"CCCCc1nc2c(N)nc3c(c2n1CC(C)(CO)CO)CCC3 [Example 14, 2-((4-amino-2-butyl-7,8-dihydrocyclopenta[b]imidazo[4,5-d]pyridin-1(6H)-yl)methyl)-2-methylpropane-1,3-diol]",7
9,"CCc1nc2c(N)nc3ccccc3c2n1CC(C)(CO)CO [Example 15, 2-((4-amino-2-ethyl-1H-imidazo[4,5-c]quinolin-1-yl)methyl)-2-methylpropane-1,3-diol]",12
10,"CCCc1nc2c(N)nc3ccccc3c2n1CC(C)(CO)CO [Example 16, 2-((4-amino-2-propyl-1H-imidazo[4,5-c]quinolin-1-yl)methyl)-2-methylpropane-1,3-diol]",11

# Same assay, conditions: freshly isolated human PBMC, 24 hrs, IFNα by HTRF; geometric mean when tested more than once
row,SMILES,EC50 [nM]
1,"CCOCc1nc2c(N)nc(C)c(C)c2n1CC(C)(CO)COC (single isomer, unassigned) [Example 6, 3-(4-amino-2-(ethoxymethyl)-6,7-dimethyl-1H-imidazo[4,5-c]pyridin-1-yl)-2-(methoxymethyl)-2-methylpropan-1-ol]",22
2,"CCOCc1nc2c(N)nc(C)c(C)c2n1CC(C)(CO)COC (single isomer, unassigned) [Example 7, 3-(4-amino-2-(ethoxymethyl)-6,7-dimethyl-1H-imidazo[4,5-c]pyridin-1-yl)-2-(methoxymethyl)-2-methylpropan-1-ol]",198
